Source: patent publication US20180110218A1, “Substrate for Controlling Flies and Other Insects, Method for Manufacturing Thereof and Use of Said Substrate as Animal Litter” (priority 2016, published 2018)
Entries after “also recorded” stand apart in the source; their conditions may differ.

Columns and labels:
Assay type in all cases: in vivo
[1] = test system: Musca domestica larvae and pupae; assay: Test 5: mortality of M. domestica, wood shavings impregnated with cyromazine formulations on horse manure
Description: The absorbent substrate impregnated were wood shavings of the “Great Northern” pine tree, which are the most commonly used for horse litters.
For the effectiveness studies, the formulations for impregnating the wood shavings were applied manually by means of a container with a spray gun. Several sprayings were carried out, turning the wood shavings halfway to ensure that they were homogeneously impregnated.
The organic matter used was rabbit excrement in the first two tests with pyriproxyfen, due to its increased availability and high infestation with fly larvae. For tests 3 and 4 with pyriproxyfen and the test carried out with cyromazine, horse excrement was used since it is the main object on which the product is applied. In both cases, manure with high levels of fly larvae infestation was selected in order to obtain a suitable number of larvae per test. […]
In the case of the test with cyromazine, after the 5 days of exposure the dead pupae and larvae were separated. Once the adults emerged, the dead larvae, the unviable pupae and the adults that emerged (healthy and malformed) were counted in order to calculate the mortality rate for each case. […]

[2] = test system: Musca domestica larvae and pupae; assay: Test 1: pupal mortality of M. domestica, wood shavings impregnated with pyriproxyfen/diflubenzuron formulations on rabbit manure
Description: (§1) The organic matter used was rabbit excrement in the first two tests with pyriproxyfen, due to its increased availability and high infestation with fly larvae. […] In both cases, manure with high levels of fly larvae infestation was selected in order to obtain a suitable number of larvae per test. […]
(§2) In the case of the tests of litters with pyriproxyfen, after 5 days of exposure (enough time for the larvae to progress to the pupal stage), the pupae were separated in plastic cups covered with a net, waiting for the adults to emerge. Once the adults emerged, the unviable pupae and the adults that emerged (healthy and malformed) were counted in order to calculate the mortality rate for each case. […]

[3] = test system: Musca domestica larvae and pupae; assay: Test 4: pupal mortality of M. domestica, wood shavings impregnated with low-concentration pyriproxyfen formulations on horse manure
Description: as §1, §2

Nc1nc(N)nc(NC2CC2)n1 [cyromazine]
effectiveness (in words) [1]: effective in low doses

O=C(NC(=O)c1c(F)cccc1F)Nc1ccc(Cl)cc1 [diflubenzuron]
mortality results / effectiveness (in words) [2]: effective in low doses

CC(COc1ccc(Oc2ccccc2)cc1)Oc1ccccn1 (stereo not drawn) [pyriproxyfen]
effectiveness as a pupicide (in words) [3]: good effectiveness; also recorded: effective in low doses
